# Experimental data from ChEMBL document CHEMBL5729064, “Benzofuran, benzothiophene, and indole analogs that inhibit the formation of tau oligomers and their method of use” (2022).
# Molecular target: Microtubule-associated protein tau (Homo sapiens, UniProt P10636)
# Assay: AlphaLisa Assay: Tau target (equal mixture of each construct at 300 nM) was prepared in buffer (Tris-HCl pH 7.4) and was incubated in 96-well plates at room temperature for 4 hours with vehicle control (DMSO) and a dose range of a compound of the disclosure (0.098 uM-50 uM). AlphaLisa acceptor beads & donor beads with ligands to the epitope tags (Perkin Elmer) were diluted (final 20 ug/mL per bead) in bead buffer (25 mM HEPES pH 7.4, 100 mM NaCl, 0.1% Tween-20), added to the wells and incubated 1 hour at room temperature. The positive control (non-incubated target) & blank (no tau) were prepared and mixed with beads in bead buffer and the plate was read immediately using the EnVision plate reader (Perkin Elmer).
# Chain of Microtubule-associated protein tau (P10636 whole entry): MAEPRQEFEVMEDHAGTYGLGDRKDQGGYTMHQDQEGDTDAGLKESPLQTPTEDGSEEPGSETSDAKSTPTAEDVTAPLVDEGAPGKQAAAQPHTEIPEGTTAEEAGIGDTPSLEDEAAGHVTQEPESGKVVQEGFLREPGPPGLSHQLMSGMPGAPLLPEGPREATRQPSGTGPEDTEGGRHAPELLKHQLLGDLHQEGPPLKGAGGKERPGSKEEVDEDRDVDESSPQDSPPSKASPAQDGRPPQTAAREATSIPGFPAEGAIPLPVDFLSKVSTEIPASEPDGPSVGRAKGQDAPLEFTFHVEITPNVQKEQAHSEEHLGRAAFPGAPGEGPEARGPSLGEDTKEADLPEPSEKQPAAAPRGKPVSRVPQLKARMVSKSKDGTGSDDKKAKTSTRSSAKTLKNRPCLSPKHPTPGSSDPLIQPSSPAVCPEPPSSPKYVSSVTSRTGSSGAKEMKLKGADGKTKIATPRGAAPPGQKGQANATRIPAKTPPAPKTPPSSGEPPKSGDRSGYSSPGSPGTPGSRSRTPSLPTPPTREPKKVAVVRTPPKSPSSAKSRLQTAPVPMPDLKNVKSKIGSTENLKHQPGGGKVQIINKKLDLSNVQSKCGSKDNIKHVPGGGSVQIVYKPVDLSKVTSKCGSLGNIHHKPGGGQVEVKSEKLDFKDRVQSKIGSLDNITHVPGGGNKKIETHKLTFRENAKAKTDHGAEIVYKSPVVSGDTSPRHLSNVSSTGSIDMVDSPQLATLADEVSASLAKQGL
row,SMILES,IC50 [nM]
1,Cc1ccc(-c2c(CCc3nc4ccccc4[nH]3)oc3ccc(Br)cc23)o1,2060
2,CC(=O)CCc1oc2ccc(-c3cccnc3)cc2c1-c1ccc(C)o1,7550
3,COc1cc(-c2ccc3c(-c4ccc(C)o4)c(CCC(C)=O)oc3c2)ccn1,1570
4,Cc1ccc(-c2c(CCC(C)(C)O)oc3ccc(Br)cc23)o1,100
5,CC(=O)CCc1oc2ccc(-c3ccncc3)cc2c1-c1ccc(C)o1,6350
6,COc1cccc(-c2ccc3oc(CCC(C)=O)c(-c4ccc(C)o4)c3c2)c1,3030

# Further molecules by falling IC50, results first:
row,IC50 [nM],SMILES
1,4020,CC(=O)CCc1oc2cc(-c3cccnc3)ccc2c1-c1ccc(C)o1
2,1930,Cc1ccc(C(C)(O)CCc2oc3ccc(Br)cc3c2-c2ccc(C)o2)cc1 (stereo unspecified)
3,1390,CC(=O)CCc1oc2ccc(-c3cccc(O)c3)cc2c1-c1ccc(C)o1
4,1270,COc1ccc(-c2ccc3oc(CCC(C)=O)c(-c4ccc(C)o4)c3c2)cn1
5,100,COc1cc(-c2ccc3oc(CCC(C)=O)c(-c4ccc(C)o4)c3c2)ccn1
